Values of other authors as cited in patent US9957484B2, “Methods for promoting cell reprogramming” (Sanford-Burnham Medical Research Institute, priority 2011, dated 2018).

How the values were obtained:
Settings in all cases: kind of value not given; cited from earlier work
PDK1 = PDK1 (Homo sapiens, UniProt O15530)
[1] = molecular target: Cdc25C-associated protein kinase 1 (Homo sapiens, UniProt P27448)
PKCα = PKCα (Homo sapiens, UniProt P17252)
Lck = Lck (Homo sapiens, UniProt P06239)
PAK4 = PAK4 (Homo sapiens, UniProt O96013)
Cdk1 = Cdk1 (Homo sapiens, UniProt P06493)
MAPKAP kinase-2 = MAPKAP kinase-2 (Homo sapiens, UniProt P49137)
Cdk5/p25 = Cdk5/p25 (Homo sapiens, UniProt Q00535)
PKCδ = PKCδ (Homo sapiens, UniProt Q05655)
Chk1 = Chk1 (Homo sapiens, UniProt O14757)
PKCβ = PKCβ (Homo sapiens, UniProt P05771)
Chk2 = Chk2 (Homo sapiens, UniProt O96017)
PKCγ = PKCγ (Homo sapiens, UniProt P05129)
myosin II heavy chain = test system: myosin II heavy chain
MEK1 = MEK1 (Homo sapiens, UniProt Q02750)
MEK1, sequence (Q02750 whole entry, species assumed): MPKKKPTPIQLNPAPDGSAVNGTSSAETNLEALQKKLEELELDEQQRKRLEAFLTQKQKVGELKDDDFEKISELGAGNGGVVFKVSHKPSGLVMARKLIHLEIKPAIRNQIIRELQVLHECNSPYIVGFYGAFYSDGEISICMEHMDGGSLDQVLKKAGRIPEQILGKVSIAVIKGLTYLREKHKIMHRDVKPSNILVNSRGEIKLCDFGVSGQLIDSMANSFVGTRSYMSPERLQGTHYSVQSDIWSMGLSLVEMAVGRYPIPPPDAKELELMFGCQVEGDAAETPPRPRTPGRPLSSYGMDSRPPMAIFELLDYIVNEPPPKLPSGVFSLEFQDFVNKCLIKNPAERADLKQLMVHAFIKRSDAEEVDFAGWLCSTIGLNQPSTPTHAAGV

Chk2, sequence (O96017 whole entry, species assumed): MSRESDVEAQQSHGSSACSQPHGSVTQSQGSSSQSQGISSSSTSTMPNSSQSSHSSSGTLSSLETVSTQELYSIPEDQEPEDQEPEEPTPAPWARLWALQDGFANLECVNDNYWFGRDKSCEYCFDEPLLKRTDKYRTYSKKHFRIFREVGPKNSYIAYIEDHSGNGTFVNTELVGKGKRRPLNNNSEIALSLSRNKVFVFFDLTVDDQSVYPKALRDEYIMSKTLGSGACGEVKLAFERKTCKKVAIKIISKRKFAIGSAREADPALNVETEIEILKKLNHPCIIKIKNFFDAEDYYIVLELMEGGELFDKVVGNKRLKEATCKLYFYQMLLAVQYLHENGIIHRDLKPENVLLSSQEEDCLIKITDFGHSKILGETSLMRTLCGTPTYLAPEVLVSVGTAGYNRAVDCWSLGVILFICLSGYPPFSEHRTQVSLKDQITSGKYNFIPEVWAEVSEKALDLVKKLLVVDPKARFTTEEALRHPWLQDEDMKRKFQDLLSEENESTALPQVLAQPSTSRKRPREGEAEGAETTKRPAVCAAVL
PDK1, sequence (O15530 whole entry): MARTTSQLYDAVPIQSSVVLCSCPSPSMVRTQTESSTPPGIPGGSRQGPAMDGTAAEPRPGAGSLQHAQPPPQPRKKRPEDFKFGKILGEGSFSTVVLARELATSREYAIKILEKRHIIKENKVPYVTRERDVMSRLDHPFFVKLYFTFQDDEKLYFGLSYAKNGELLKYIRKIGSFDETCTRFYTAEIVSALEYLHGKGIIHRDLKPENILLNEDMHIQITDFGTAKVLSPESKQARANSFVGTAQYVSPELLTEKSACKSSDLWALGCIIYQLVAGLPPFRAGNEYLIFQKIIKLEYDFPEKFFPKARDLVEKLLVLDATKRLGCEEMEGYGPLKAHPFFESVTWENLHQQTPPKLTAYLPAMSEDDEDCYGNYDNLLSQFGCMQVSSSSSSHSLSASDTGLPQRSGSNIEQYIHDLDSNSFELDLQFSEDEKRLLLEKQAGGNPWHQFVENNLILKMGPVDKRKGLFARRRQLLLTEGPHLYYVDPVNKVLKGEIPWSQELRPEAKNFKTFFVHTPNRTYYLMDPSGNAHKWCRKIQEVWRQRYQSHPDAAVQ
Lck, sequence (P06239 whole entry): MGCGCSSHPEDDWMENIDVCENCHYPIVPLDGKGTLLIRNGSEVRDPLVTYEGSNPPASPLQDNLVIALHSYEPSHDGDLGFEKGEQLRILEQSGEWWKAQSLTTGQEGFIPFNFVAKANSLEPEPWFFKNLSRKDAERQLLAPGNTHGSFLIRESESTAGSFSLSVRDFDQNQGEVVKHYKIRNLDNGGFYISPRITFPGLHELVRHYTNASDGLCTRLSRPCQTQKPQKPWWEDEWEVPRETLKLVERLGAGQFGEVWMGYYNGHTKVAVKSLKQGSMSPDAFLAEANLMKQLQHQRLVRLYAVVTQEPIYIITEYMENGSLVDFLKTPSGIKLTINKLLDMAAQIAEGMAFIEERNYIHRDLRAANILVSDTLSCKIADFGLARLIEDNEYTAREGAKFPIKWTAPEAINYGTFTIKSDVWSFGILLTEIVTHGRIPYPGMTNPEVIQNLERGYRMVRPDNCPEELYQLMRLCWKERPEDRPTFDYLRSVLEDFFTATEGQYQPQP
Cdk1, sequence (P06493 whole entry, species assumed): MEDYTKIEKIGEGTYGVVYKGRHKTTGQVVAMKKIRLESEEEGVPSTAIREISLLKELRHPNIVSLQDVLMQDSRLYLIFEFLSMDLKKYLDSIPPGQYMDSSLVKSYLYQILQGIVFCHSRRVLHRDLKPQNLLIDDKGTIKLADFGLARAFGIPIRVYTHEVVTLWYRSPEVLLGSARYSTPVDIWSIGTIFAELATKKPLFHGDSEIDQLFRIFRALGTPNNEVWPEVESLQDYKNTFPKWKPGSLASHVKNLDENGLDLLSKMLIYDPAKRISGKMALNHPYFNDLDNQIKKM
Cdk1, sequence (P14635 whole entry partner, species assumed): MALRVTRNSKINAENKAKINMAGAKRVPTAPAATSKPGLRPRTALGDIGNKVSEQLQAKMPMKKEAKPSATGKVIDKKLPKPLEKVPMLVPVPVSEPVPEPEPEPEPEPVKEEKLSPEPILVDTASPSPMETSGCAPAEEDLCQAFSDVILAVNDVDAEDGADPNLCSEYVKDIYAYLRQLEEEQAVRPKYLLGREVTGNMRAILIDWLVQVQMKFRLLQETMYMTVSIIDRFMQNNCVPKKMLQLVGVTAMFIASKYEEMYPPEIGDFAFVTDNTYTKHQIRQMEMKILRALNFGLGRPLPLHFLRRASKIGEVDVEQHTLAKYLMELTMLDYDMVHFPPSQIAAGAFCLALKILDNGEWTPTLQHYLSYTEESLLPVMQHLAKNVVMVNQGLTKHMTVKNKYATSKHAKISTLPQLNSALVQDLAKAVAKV
PAK4, sequence (O96013 whole entry, species assumed): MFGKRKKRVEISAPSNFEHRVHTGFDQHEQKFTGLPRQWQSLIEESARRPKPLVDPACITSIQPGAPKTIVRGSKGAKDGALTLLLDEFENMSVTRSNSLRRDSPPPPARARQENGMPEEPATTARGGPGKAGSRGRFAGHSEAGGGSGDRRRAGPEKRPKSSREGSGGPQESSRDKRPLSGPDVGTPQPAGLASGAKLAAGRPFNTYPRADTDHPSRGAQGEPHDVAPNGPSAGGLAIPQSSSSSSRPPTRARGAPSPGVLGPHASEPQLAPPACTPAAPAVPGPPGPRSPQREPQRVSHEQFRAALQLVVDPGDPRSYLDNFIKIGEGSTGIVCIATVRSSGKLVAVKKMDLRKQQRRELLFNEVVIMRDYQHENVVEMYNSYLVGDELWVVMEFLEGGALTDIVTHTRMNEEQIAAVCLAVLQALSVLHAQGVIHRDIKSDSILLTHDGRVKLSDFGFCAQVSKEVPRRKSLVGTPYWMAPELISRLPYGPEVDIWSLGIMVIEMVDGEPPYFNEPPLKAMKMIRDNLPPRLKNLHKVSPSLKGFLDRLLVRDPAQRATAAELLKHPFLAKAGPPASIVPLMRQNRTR
PKCβ, sequence (P05771 whole entry, species assumed): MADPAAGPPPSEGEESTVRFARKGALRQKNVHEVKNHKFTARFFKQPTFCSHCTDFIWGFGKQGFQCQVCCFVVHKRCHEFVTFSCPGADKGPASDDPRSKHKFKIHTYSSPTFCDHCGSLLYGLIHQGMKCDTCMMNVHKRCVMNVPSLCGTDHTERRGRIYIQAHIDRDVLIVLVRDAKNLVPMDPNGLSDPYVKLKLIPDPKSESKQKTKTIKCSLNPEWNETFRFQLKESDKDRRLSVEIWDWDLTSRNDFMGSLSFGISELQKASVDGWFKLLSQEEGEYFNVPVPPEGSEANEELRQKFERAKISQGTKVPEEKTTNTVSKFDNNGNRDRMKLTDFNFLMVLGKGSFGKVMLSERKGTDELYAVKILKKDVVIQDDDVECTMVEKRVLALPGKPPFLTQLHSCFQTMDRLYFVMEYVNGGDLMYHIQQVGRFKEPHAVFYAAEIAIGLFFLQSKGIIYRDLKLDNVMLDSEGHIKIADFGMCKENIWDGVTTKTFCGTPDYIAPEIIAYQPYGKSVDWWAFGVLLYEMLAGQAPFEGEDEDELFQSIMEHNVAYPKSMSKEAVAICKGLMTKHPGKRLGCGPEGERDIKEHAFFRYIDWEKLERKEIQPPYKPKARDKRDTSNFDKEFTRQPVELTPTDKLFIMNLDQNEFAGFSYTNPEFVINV
Chk1, sequence (O14757 whole entry, species assumed): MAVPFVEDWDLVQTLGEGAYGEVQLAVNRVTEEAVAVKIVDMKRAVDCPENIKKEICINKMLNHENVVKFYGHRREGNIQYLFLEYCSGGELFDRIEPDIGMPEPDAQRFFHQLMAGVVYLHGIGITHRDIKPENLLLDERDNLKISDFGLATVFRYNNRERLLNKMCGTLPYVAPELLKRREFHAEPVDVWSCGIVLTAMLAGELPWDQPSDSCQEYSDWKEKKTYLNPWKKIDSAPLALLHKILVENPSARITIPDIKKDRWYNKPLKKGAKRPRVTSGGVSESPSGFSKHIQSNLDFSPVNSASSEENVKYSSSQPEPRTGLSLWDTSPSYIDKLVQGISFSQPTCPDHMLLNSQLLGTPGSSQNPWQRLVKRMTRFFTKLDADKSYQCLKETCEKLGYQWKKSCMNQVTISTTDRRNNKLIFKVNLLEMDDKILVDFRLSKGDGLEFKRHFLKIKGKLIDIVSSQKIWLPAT
MAPKAP kinase-2, sequence (P49137 whole entry, species assumed): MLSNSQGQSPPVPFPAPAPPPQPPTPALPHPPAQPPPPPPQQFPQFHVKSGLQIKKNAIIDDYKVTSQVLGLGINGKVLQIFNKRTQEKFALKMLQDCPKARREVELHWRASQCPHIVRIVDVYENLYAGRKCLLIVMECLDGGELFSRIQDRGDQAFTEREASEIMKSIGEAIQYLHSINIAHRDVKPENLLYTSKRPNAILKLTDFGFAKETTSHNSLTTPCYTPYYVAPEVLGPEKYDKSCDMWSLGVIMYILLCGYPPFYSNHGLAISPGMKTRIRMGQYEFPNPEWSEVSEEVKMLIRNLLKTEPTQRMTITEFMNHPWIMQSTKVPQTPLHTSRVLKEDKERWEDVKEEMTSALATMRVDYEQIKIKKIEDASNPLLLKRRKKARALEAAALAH

Row | Compound | Potential Targets: PDK1 (PDK1) | Potential Targets: Cdc25C-associated protein kinase 1 [1] | Potential Targets: PKCα (PKCα) | Potential Targets: Lck (Lck) | Potential Targets: PAK4 (PAK4) | Potential Targets: Cdk1 (Cdk1) | Potential Targets: MAPKAP kinase-2 (MAPKAP kinase-2) | Potential Targets: Cdk5/p25 (Cdk5/p25) | Potential Targets: PKCδ (PKCδ) | Potential Targets: Chk1 (Chk1) | Potential Targets: PKCβ (PKCβ) | Potential Targets: Chk2 (Chk2) | Potential Targets: PKCγ (PKCγ) | Potential Targets: myosin II heavy chain (myosin II heavy chain) | Potential Targets: MEK1 (MEK1)
1 | CN[C@@H]1C[C@H]2O[C@@](C)([C@@H]1OC)n1c3ccccc3c3c4c(c5c6ccccc6n2c5c31)C(=O)N[C@@H]4O [BIM-0207189, UCN-01] | 33 nM | 27 nM | 9 nM | 50 nM | 50 nM | 50 nM | 95 nM | 150 nM | 590 nM | 7 nM | 34 nM | 1.04 μM for Chk1, Cdc25C- | 30 nM |  | 
2 | c1nc2nc(Nc3ccc(N4CCOCC4)cc3)nc(NC3CCCCC3)c2[nH]1 [BIM-0207192, Reversine] |  |  |  |  |  |  |  |  |  |  |  |  |  | chain (10 nM), Aurora kinases | MEK1 (8 nM), myosin II heavy
